Measured values taken from patent publication US10947248B2, “4β-amidotriazole linked podophyllotoxin derivatives as potential anticancer agents” (COUNCIL OF SCIENTIFIC & INDUSTRIAL RESEARCH, priority 2016, dated 2021).
Where two headings read alike, the source gives them in different places.

Experiments:
[1] = test system: Hela (human cervical cancer); assay: MTT in vitro cytotoxicity assay, Hela; type: cell-based; conditions: read-out: IC50 Hela
[2] = test system: MCF-7 (human breast cancer); assay: MTT in vitro cytotoxicity assay, MCF-7; type: cell-based; conditions: read-out: IC50 MCF-7
[3] = test system: DU-145 (human prostate cancer); assay: MTT in vitro cytotoxicity assay, DU-145; type: cell-based; conditions: read-out: IC50 DU-145
A549 (human lung cancer) = assay: MTT in vitro cytotoxicity assay, A549; type: cell-based; conditions: read-out: IC50 A549
HepG2 (liver cancer) = assay: MTT in vitro cytotoxicity assay, HepG2; type: cell-based; conditions: Homo sapiens, read-out: IC50 HepG2
HT-29 (colon cancer) = assay: MTT in vitro cytotoxicity assay, HT-29; type: cell-based; conditions: Homo sapiens, read-out: IC50 HT-29
[4] = test system: human cancer cell lines (Hela, MCF-7, DU-145, A549, HepG2, HT-29); assay: MTT in vitro cytotoxicity assay, all tested human cancer cell lines; type: cell-based; conditions: range over Hela, read-out: IC50 values ranging over all tested human cancer cell lines
Text: The IC50 values (in μM) for compounds 8a, 8c, 8n, 8p, 9c and 9p have been illustrated in Table 1.

SMILES | IC50 ([1]; HeLa, 48 h) [µM] | IC50 ([2]; MCF7, 48 h) [µM] | IC50 ([3]; DU-145, 48 h) [µM] | IC50 (A549 (human lung cancer); A549, 48 h) [µM] | IC50 (HepG2 (liver cancer); HepG2, 48 h) [µM] | IC50 (HT-29 (colon cancer); HT-29, 48 h) [µM] | IC50 [4] [µM] | melting point [°C] | IC50 ([1]; Hela, 48 h of drug treatment, average of three individual experiments) [µM] | IC50 ([2]; MCF7, MCF-7, 48 h of drug treatment, average of three individual experiments) [µM] | IC50 ([3]; DU-145, 48 h of drug treatment, average of three individual experiments) [µM] | IC50 (A549 (human lung cancer); A549, 48 h of drug treatment, average of three individual experiments) [µM] | IC50 (HepG2 (liver cancer); HepG2, 48 h of drug treatment, average of three individual experiments) [µM] | IC50 (HT-29 (colon cancer); HT-29, 48 h of drug treatment, average of three individual experiments) [µM]
COc1cc([C@@H]2c3cc4c(cc3[C@@H](NC(=O)c3cn(Cc5ccc(Cl)cc5)nn3)[C@H]3COC(=O)[C@H]23)OCO4)cc(OC)c1OC [Compound 9p, 1-(4-chlorobenzyl)-N-((5S,5aS,8aR,9R)-8-oxo-9-(3,4,5-trimethoxyphenyl)-5,5a,6,8,8a,9-hexahydrofuro[3′,4′:6,7]naphtho[2,3-d][1,3]dioxol-5-yl)-1H-1,2,3-triazole-4-carboxamide] | 3.57 ± 0.16 | 5.3 ± 0.39 | 2.37 ± 0.08 | 8.06 ± 0.06 | 3.54 ± 0.37 | 23.7 ± 0.38 | 0.7 to 4 | 180 to 184 | – | – | – | – | – | –
COc1cc([C@@H]2c3cc4c(cc3[C@@H](NC(=O)c3cn(-c5ccc(Cl)cc5)nn3)[C@H]3COC(=O)[C@H]23)OCO4)cc(OC)c1OC [Compound 8p, 1-(4-chlorophenyl)-N-((5S,5aS,8aR,9R)-8-oxo-9-(3,4,5-trimethoxyphenyl)-5,5a,6,8,8a,9-hexahydrofuro[3′,4′:6,7]naphtho[2,3-d][1,3]dioxol-5-yl)-1H-1,2,3-triazole-4-carboxamide] | 0.78 | 0.97 | 0.7 | 1.2 | 0.78 | 4.11 | 0.7 to 4.11 | 222 to 225 | – | – | – | – | – | –
COc1cc([C@@H]2c3cc4c(cc3[C@@H](NC(=O)c3cn(-c5ccccc5)nn3)[C@H]3COC(=O)[C@H]23)OCO4)cc(OC)c1OC [Compound 8a, N-((5S,5aS,8aR,9R)-8-oxo-9-(3,4,5-trimethoxyphenyl)-5,5a,6,8,8a,9-hexahydrofuro[3′,4′:6,7]naphtho[2,3-d][1,3]dioxol-5-yl)-1-phenyl-1H-1,2,3-triazole-4-carboxamide] | 2.47 ± 0.24 | 1.45 ± 0.46 | 1.31 ± 0.11 | 1.82 ± 0.11 | 1.94 ± 0.13 | 5.37 ± 0.74 | 0.7 to 4 | 170 to 172 | – | – | – | – | – | –
COc1cc(OC)cc(-n2cc(C(=O)N[C@@H]3c4cc5c(cc4[C@@H](c4cc(OC)c(OC)c(OC)c4)[C@H]4C(=O)OC[C@@H]43)OCO5)nn2)c1 | – | – | – | – | – | – | – | 145 to 148 | – | – | – | – | – | –
COc1ccc(Cn2cc(C(=O)N[C@@H]3c4cc5c(cc4[C@@H](c4cc(OC)c(OC)c(OC)c4)[C@H]4C(=O)OC[C@@H]43)OCO5)nn2)cc1 [Compound 9c, 1-(4-methoxybenzyl)-N-((5S,5aS,8aR,9R)-8-oxo-9-(3,4,5-trimethoxyphenyl)-5,5a,6,8,8a,9-hexahydrofuro[3′,4′:6,7]naphtho[2,3-d][1,3]dioxol-5-yl)-1H-1,2,3-triazole-4-carboxamide] | 3.46 ± 0.06 | 3.32 ± 0.55 | 1.76 ± 0.27 | 5.82 ± 0.43 | 1.96 ± 0.07 | 17.5 ± 0.34 | 0.7 to 4 | 174 to 177 | – | – | – | – | – | –
COc1ccc(-n2cc(C(=O)N[C@@H]3c4cc5c(cc4[C@@H](c4cc(OC)c(OC)c(OC)c4)[C@H]4C(=O)OC[C@@H]43)OCO5)nn2)cc1 [Compound 8c, 1-(4-methoxyphenyl)-N-((5S,5aS,8aR,9R)-8-oxo-9-(3,4,5-trimethoxyphenyl)-5,5a,6,8,8a,9-hexahydrofuro[3′,4′:6,7]naphtho[2,3-d][1,3]dioxol-5-yl)-1H-1,2,3-triazole-4-carboxamide] | 6.49 ± 0.22 | 1.11 ± 0.1 | 0.99 ± 0.07 | 1.61 ± 0.38 | 2.79 ± 0.54 | 11.4 ± 1.66 | 0.7 to 4 | 195 to 197 | – | – | – | – | – | –
COc1cc(Cn2cc(C(=O)N[C@@H]3c4cc5c(cc4[C@@H](c4cc(OC)c(OC)c(OC)c4)[C@H]4C(=O)OC[C@@H]43)OCO5)nn2)cc(OC)c1OC | – | – | – | – | – | – | – | 189 to 192 | – | – | – | – | – | –
COc1cc([C@@H]2c3cc4c(cc3[C@@H](NC(=O)c3cn(-c5ccc6c(c5)OCO6)nn3)[C@H]3COC(=O)[C@H]23)OCO4)cc(OC)c1OC | – | – | – | – | – | – | – | 188 to 191 | – | – | – | – | – | –
COc1cc([C@@H]2c3cc4c(cc3[C@@H](O[C@@H]3O[C@@H]5CO[C@@H](C)O[C@H]5[C@H](O)[C@H]3O)[C@H]3COC(=O)[C@H]23)OCO4)cc(OC)c1O [Etoposide, reference compound] | – | – | – | – | – | – | – | – | 2.71 ± 0.52 | 1.62 ± 0.14 | 2.35 ± 0.05 | 1.97 ± 0.17 | 2.84 ± 0.27 | 1.87 ± 0.31
COc1cc([C@@H]2c3cc4c(cc3[C@@H](NC(=O)c3cn(-c5cc(OC)c(OC)c(OC)c5)nn3)[C@H]3COC(=O)[C@H]23)OCO4)cc(OC)c1OC | – | – | – | – | – | – | – | 181 to 183 | – | – | – | – | – | –
COc1cc([C@@H]2c3cc4c(cc3[C@H](O)[C@H]3COC(=O)[C@H]23)OCO4)cc(OC)c1OC [Podophyllotoxin] | 3.45 ± 0.29 | 3.06 ± 0.24 | 4.15 ± 0.63 | 4.6 ± 0.42 | 6.63 ± 0.17 | 4.78 ± 0.16 | – | – | – | – | – | – | – | –
COc1cc([C@@H]2c3cc4c(cc3[C@@H](NC(=O)c3cn(-c5ccc(C(F)(F)F)cc5)nn3)[C@H]3COC(=O)[C@H]23)OCO4)cc(OC)c1OC [Compound 8n, N-((5S,5aS,8aR,9R)-8-oxo-9-(3,4,5-trimethoxyphenyl)-5,5a,6,8,8a,9-hexahydrofuro[3′,4′:6,7]naphtho[2,3-d][1,3]dioxol-5-yl)-1-(4-(trifluoromethyl)phenyl)-1H-1,2,3-triazole-4-carboxamide] | 1.21 ± 0.27 | 1.35 ± 0.07 | 0.89 ± 0.02 | 1.96 ± 0.08 | 1.21 ± 0.27 | 4.4 ± 0.05 | 0.7 to 4 | 190 to 194 | – | – | – | – | – | –
